Experiment [1] addresses T1, human GpA TM domain (Homo sapiens, UniProt P02724).
T1 construct: purchased Peptide Specialty Laboratories, Heidelberg, Germany; host or cells: chemical synthesis (custom peptide)
T1 sequence (P02724 88-120 limits assumed) 1: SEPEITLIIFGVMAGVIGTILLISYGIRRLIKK
T1 sequence (P02724 88-120 limits assumed) 2: T1 sequence (P02724 88-120 limits assumed) 1
Briefly: FRET kinetics of exchange of GpA TM peptides between particles/micelles. The format is binding. As to conditions: for amplitude of first (fast) phase / amplitude of second (slow) phase / exchange rate constant, first (fast) phase / exchange rate constant, second (slow) phase: double-exponential fit. On the procedure: For Förster resonance energy transfer (FRET) measurements, equal concentrations of FL- and TAMRA-labeled GpA TM domains were used. Concentrations of the peptide stock solutions were determined from absorbance measurements on a Perkin Elmer Lambda 35 UV/VIS spectrophotometer. In all experiments, we used 0.25 µM for each of the two labeled GpA peptides. Peptides dissolved in TFE and A8-35 dissolved in ethanol were mixed, and organic solvents were removed under a gentle stream of nitrogen gas. Residual solvent traces were removed by vacuum desiccation overnight. The dried peptide/polymer film was then hydrated in 10 mM HEPES buffer (pH 7.4) containing 150 mM NaCl.
(§1) After at least 2 h of incubation at 37°C and 10 min of centrifugation at 16,000 g, steady-state fluorescence measurements were performed with the supernatant at 25°C on a Horiba Fluoromax 4 system with both excitation and emission slits at 3 nm. The excitation wavelength was set at 439 nm, and emission spectra were recorded from 480 to 650 nm. For FRET measurements with SDS, several concentrations of SDS, both below and above the CMC determined for the given buffer conditions, were used, and hydrated samples were incubated overnight.
(§2) Energy transfer E was calculated using the donor fluorescence intensities at 525 nm in presence and absence of acceptor according to [drawing 1] (1)
To investigate the effect of A8-35 on the GpA dimer stability in greater detail, we next performed kinetic measurements and determined the exchange rates of GpA TM helices between various polymer particles after reconstitution. Upon addition of an excess of a competing surfactant, such as free APols, detergents or phospholipids, MPs can be released from preformed complexes with APols, although at very slow dissociation rates, and e.g. integrate into detergent micelles, [37]-[39]. To test this, donor- and acceptor-labeled GpA peptides were individually solubilized in 20 µM A8-35 and incubated at 37°C for at least 2 h. Next, A8-35-solubilized donor and acceptor peptides were mixed in a 1∶1 ratio, and fluorescence emission spectra were recorded every 10 min for about 17 h (Figure 3A). As a control necessary for calculation of energy transfer, this measurement was also performed with solely the donor sample, for which no changes in fluorescence intensity were observed. […] To compare the exchange rates measured in APols with rates determined in micellar environments, the same experiment was performed in 5 mM DDM micelles (Figure 3C).
Figure 3 Kinetics of the exchange of GpA TM peptides between APol aggregates. Donor- and acceptor-labelled GpA TM (each 0.25 µM) domains were separately solubilized in 20 µM APol at a final polymer/peptide ratio of 40∶1. (A) After incubation at 37°C, donor and acceptor were mixed, and emission spectra (normalized at 525 nm) were recorded every 10 min over a time period of 17 h at 25°C. (B) The energy transfer increased over hours to the level determined by steady-state FRET measurements due to mixing of donor- and acceptor-labelled peptides.

The next experiment concerns GpA TM helix dimer. As to conditions: ref [24], listed as GpA dimer; cited from earlier work. An excerpt: Thermal denaturation of MPs often leads to irreversible aggregation of the MP, and guanidine hydrochloride and urea, which are frequently used in unfolding studies involving soluble proteins, do typically not denature the TM regions of MPs. This is why the thermodynamic stability of integral MPs within membrane-mimetic systems is often assessed by titrating increasing concentrations of the anionic detergent SDS to MPs dissolved in a mild detergent, such as DDM [24], [40]-[44]. SDS is able to form mixed micelles with other detergents typically used for MP solubilization. […] This indicates a strong destabilizati ...

The target of experiment [2] is T1, human GpA TM domain. In words: FRET at different acceptor mole ratios, stoichiometry of GpA TM domain association. The format is binding. As to conditions: constant total peptide, linear dependence, n = 2. On the procedure:
[…] Concentrations of the peptide stock solutions were determined from absorbance measurements on a Perkin Elmer Lambda 35 UV/VIS spectrophotometer. […] Peptides dissolved in TFE and A8-35 dissolved in ethanol were mixed, and organic solvents were removed under a gentle stream of nitrogen gas. Residual solvent traces were removed by vacuum desiccation overnight. The dried peptide/polymer film was then hydrated in 10 mM HEPES buffer (pH 7.4) containing 150 mM NaCl.
as §1, §2
Besides formation of GpA dimers, the recorded energy transfer might, in principle, also originate from formation of higher-ordered oligomeric structures, such as trimers or tetramers, or even from unspecific peptide aggregation. […]

For `CC[C@H](C)[C@H](NC(=O)CNC(=O)[C@H](Cc1ccc(O)cc1)NC(=O)[C@H](CO)NC(=O)[C@@H](NC(=O)[C@H](CC(C)C)NC(=O)[C@H](CC(C)C)NC(=O)[C@@H](NC(=O)[C@@H](NC(=O)CNC(=O)[C@@H](NC(=O)[C@@H](NC(=O)CNC(=O)[C@H](C)NC(=O)[C@H](CCSC)NC(=O)[C@@H](NC(=O)CNC(=O)[C@H](Cc1ccccc1)NC(=O)[C@@H](NC(=O)[C@@H](NC(=O)[C@H](CC(C)C)NC(=O)[C@@H](NC(=O)[C@@H](NC(=O)[C@H](CCC(=O)O)NC(=O)[C@@H]1CCCN1C(=O)[C@H](CCC(=O)O)NC(=O)[C@@H](N)CO)[C@@H](C)CC)[C@@H](C)O)[C@@H](C)CC)[C@@H](C)CC)C(C)C)C(C)C)[C@@H](C)CC)[C@@H](C)O)[C@@H](C)CC)[C@@H](C)CC)C(=O)N[C@@H](CCCNC(=N)N)C(=O)N[C@@H](CCCNC(=N)N)C(=O)N[C@@H](CC(C)C)C(=O)N[C@H](C(=O)N[C@@H](CCCCN)C(=O)N[C@@H](CCCCN)C(=O)O)[C@@H](C)CC` [GpA TM domain], at human GpA TM domain [1] (5 mM DDM micelles), the “amplitude of first (fast) phase” value came out at 13.3; the “amplitude of second (slow) phase” value was 15.6; the “exchange rate constant, first (fast) phase” value came to 41.5 h⁻¹; the “exchange rate constant, second (slow) phase” value was 5.8 h⁻¹. At human GpA TM domain [1] (5 mM DDM micelles, listed as GpA TM peptides), the “duration of peptide exchange” value is given as “completed after some dozen minutes”. The compound further registered an energy transfer at human GpA TM domain [1] (17 h after 1:1 mixing of donor- and acceptor-labeled peptides (each 0.25 µM) in 20 µM A8-35, 25°C) of around 35%. In addition, the “dimer fraction after exchange” value on human GpA TM domain [1] (17 h after mixing, from energy transfer, 20 µM A8-35, 25°C) was around 0.7. In addition, the “duration of peptide exchange” value on human GpA TM domain [1] (A8-35 (20 µM)) was “proceeded for several hours”. Besides, at human GpA TM domain [1] (A8-35 (20 µM), 25°C), the “amplitude of first (fast) phase” value is reported as 8.7; the “amplitude of second (slow) phase” value was 12.4; the “exchange rate constant, first (fast) phase” value came to 2.2 h⁻¹; the “exchange rate constant, second (slow) phase” value is 0.17 h⁻¹. Moreover, the “dissociation of GpA dimer in mixed DDM/SDS micelles” value in the experiment on GpA TM helix dimer was “completely unfolded”. The “stoichiometry of association (energy transfer vs acceptor mole fraction)” value at human GpA TM domain [2] (5 µM A8-35) is “exclusive dimer formation”. The “stoichiometry of association (energy transfer vs acceptor mole fraction)” value at human GpA TM domain [2] (50 µM A8-35) is given as “exclusive dimer formation”.

The values above are taken from publication PMC4210147, “Sequence-Specific Dimerization of a Transmembrane Helix in Amphipol A8-35” (PLoS ONE, 2014).
